pEC50, pIC50: −log10 of the molar value.
What follows are compounds tested against S1P3 (membranes prepared from EDG3-Gal5-bla HEK293T cells) (Homo sapiens (Human), UniProt Q99500) (assay: Receptor [35S] GTPγS binding assay (S1P3 GTPγS)). Details: phosphate examples; read-out: S1P3 GTPγS.
Assay type: biochemical
Outline: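 Membranes (3 μg protein/well) from S1P1/CHO cells or EDG3-Gal5-bla HEK293T cells (S1P3) were incubated 45 min at room temperature with 0.2 nM final [35S]GTPγS in HEPES pH 7.5 buffer with 10 μM GDP, MgCl2 and saponin. Bound label counted after filtration; EC50 from 11-point, 3-fold dilutions.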

Sequence of S1P3 (membranes prepared from EDG3-Gal5-bla HEK293T cells) (Q99500 whole entry): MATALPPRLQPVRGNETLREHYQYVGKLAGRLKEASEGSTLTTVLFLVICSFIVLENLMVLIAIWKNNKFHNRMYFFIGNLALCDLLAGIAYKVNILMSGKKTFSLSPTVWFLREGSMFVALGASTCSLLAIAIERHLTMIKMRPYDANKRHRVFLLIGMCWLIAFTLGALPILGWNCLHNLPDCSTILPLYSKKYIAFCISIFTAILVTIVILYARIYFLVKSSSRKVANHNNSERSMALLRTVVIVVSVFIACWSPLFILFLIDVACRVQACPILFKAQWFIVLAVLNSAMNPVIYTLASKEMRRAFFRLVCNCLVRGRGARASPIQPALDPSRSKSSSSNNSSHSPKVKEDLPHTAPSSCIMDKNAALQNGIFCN

Compound | pEC50
CN(C)C(=O)c1cccc(OC[C@@H]2CCc3cc([C@H]4CC[C@](N)(COP(=O)(O)O)C4)ccc3C2)c1 [compound 495] | < 6.20
Cc1cccc(/C=C/[C@@H]2CCc3cc([C@H]4CC[C@](N)(COP(=O)(O)O)C4)ccc3C2)c1 [compound 644] | < 6.20
CCOc1ccc(C[C@@H]2CCc3cc([C@H]4CC[C@](N)(COP(=O)(O)O)C4)ccc3C2)cc1 [compound 549] | < 6.20
Cn1nc(OC[C@@H]2CCc3cc([C@H]4CC[C@](N)(COP(=O)(O)O)C4)ccc3C2)cc1C(F)(F)F [compound 496] | < 6.20
CC(C)=CCOC[C@@H]1CCc2cc([C@H]3CC[C@](N)(COP(=O)(O)O)C3)ccc2C1 [compound 453] | < 6.20
CCCCCCN1CCc2cc([C@@H]3CC[C@](N)(COP(=O)(O)O)C3)ccc2C1=O [compound 417] | < 6.20
Cc1ccc(OC[C@@H]2CCc3cc([C@H]4CC[C@](N)(COP(=O)(O)O)C4)ccc3C2)cc1 [compound 467] | < 6.20
CCc1ccc(COC[C@@H]2CCc3cc([C@H]4CC[C@](N)(COP(=O)(O)O)C4)ccc3C2)s1 [compound 489] | < 6.20
CCCSCC[C@H]1CCc2cc([C@H]3CC[C@](N)(COP(=O)(O)O)C3)ccc2C1 [compound 534] | < 6.20
CCCCCCC1Cc2ccc([C@H]3CC[C@](N)(COP(=O)(O)O)C3)cc2CO1 (stereo partly shown) [compound 421] | < 6.20

What follows are compounds tested against S1P1 (membranes prepared from S1P1/CHO cells) (Homo sapiens (Human), UniProt P21453) (assay: Receptor [35S] GTPγS binding assay (S1P1 GTPγS)). Details: phosphate examples; read-out: S1P1 GTPγS.
Sequence of S1P1 (membranes prepared from S1P1/CHO cells) (P21453 whole entry): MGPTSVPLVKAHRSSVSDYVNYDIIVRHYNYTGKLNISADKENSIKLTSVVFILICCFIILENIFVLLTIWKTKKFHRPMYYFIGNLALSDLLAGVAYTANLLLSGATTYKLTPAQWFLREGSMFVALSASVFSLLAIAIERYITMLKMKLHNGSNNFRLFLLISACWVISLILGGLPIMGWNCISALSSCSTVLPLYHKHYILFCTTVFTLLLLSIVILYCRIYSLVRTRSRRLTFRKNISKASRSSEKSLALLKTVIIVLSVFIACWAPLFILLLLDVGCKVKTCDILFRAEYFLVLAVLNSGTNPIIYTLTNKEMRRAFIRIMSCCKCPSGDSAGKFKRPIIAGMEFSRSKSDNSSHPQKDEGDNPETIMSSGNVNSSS
Assay type: biochemical
Outline: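 Membranes from S1P1-expressing CHO cells (3 μg protein/well) incubated with compound (11-point, 3-fold dilution) and 0.2 nM final [35S]GTPγS, 45 min at room temperature. Assay buffer: 20 mM HEPES pH 7.5, 10 mM MgCl2, 150 mM NaCl, 10 μM GDP, 0.1% fatty-acid-free BSA, 10 μg/ml saponin. Filter-bound radioactivity counted by scintillation; EC50 derived.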

Compound | pEC50
CN(C)C(=O)c1cccc(OC[C@@H]2CCc3cc([C@H]4CC[C@](N)(COP(=O)(O)O)C4)ccc3C2)c1 [compound 495] | 7.00 to 8.00
Cc1cccc(/C=C/[C@@H]2CCc3cc([C@H]4CC[C@](N)(COP(=O)(O)O)C4)ccc3C2)c1 [compound 644] | 7.00 to 8.00
CCOc1ccc(C[C@@H]2CCc3cc([C@H]4CC[C@](N)(COP(=O)(O)O)C4)ccc3C2)cc1 [compound 549] | 6.00 to 7.00
Cn1nc(OC[C@@H]2CCc3cc([C@H]4CC[C@](N)(COP(=O)(O)O)C4)ccc3C2)cc1C(F)(F)F [compound 496] | > 8.00
CC(C)=CCOC[C@@H]1CCc2cc([C@H]3CC[C@](N)(COP(=O)(O)O)C3)ccc2C1 [compound 453] | 7.00 to 8.00
CCCCCCN1CCc2cc([C@@H]3CC[C@](N)(COP(=O)(O)O)C3)ccc2C1=O [compound 417] | 6.00 to 7.00
Cc1ccc(OC[C@@H]2CCc3cc([C@H]4CC[C@](N)(COP(=O)(O)O)C4)ccc3C2)cc1 [compound 467] | 7.00 to 8.00
CCc1ccc(COC[C@@H]2CCc3cc([C@H]4CC[C@](N)(COP(=O)(O)O)C4)ccc3C2)s1 [compound 489] | 7.00 to 8.00
CCCSCC[C@H]1CCc2cc([C@H]3CC[C@](N)(COP(=O)(O)O)C3)ccc2C1 [compound 534] | > 8.00
CCCCCCC1Cc2ccc([C@H]3CC[C@](N)(COP(=O)(O)O)C3)cc2CO1 (stereo partly shown) [compound 421] | > 8.00

What follows are compounds tested against human S1P1 (Homo sapiens (Human), UniProt P21453) (assay: S1P1 binding assay (33P-S1P radioligand competition, CHO cell membranes)). Details: phosphate examples; read-out: S1P1 Binding.
Sequence of human S1P1 (P21453 whole entry): as above
Outline: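 Radioligand is 33P-S1P, competing for membranes from human S1P1-expressing CHO cells. Membranes resuspended in 50 mM HEPES pH 7.5, 100 mM NaCl, 1 mM MgCl2, 2 mM EDTA.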

Compound | pIC50
CN(C)C(=O)c1cccc(OC[C@@H]2CCc3cc([C@H]4CC[C@](N)(COP(=O)(O)O)C4)ccc3C2)c1 [compound 495] | 7.00 to 8.00
Cc1cccc(/C=C/[C@@H]2CCc3cc([C@H]4CC[C@](N)(COP(=O)(O)O)C4)ccc3C2)c1 [compound 644] | 6.00 to 7.00
CCOc1ccc(C[C@@H]2CCc3cc([C@H]4CC[C@](N)(COP(=O)(O)O)C4)ccc3C2)cc1 [compound 549] | 6.00 to 7.00
Cn1nc(OC[C@@H]2CCc3cc([C@H]4CC[C@](N)(COP(=O)(O)O)C4)ccc3C2)cc1C(F)(F)F [compound 496] | > 8.00
CC(C)=CCOC[C@@H]1CCc2cc([C@H]3CC[C@](N)(COP(=O)(O)O)C3)ccc2C1 [compound 453] | 7.00 to 8.00
CCCCCCN1CCc2cc([C@@H]3CC[C@](N)(COP(=O)(O)O)C3)ccc2C1=O [compound 417] | 7.00 to 8.00
Cc1ccc(OC[C@@H]2CCc3cc([C@H]4CC[C@](N)(COP(=O)(O)O)C4)ccc3C2)cc1 [compound 467] | 7.00 to 8.00
CCc1ccc(COC[C@@H]2CCc3cc([C@H]4CC[C@](N)(COP(=O)(O)O)C4)ccc3C2)s1 [compound 489] | > 8.00
CCCSCC[C@H]1CCc2cc([C@H]3CC[C@](N)(COP(=O)(O)O)C3)ccc2C1 [compound 534] | > 8.00
CCCCCCC1Cc2ccc([C@H]3CC[C@](N)(COP(=O)(O)O)C3)cc2CO1 (stereo partly shown) [compound 421] | > 8.00

These compounds were tested against hS1P1/CHO cells (Homo sapiens (Human), UniProt P21453) (assay: hS1P1 ERK phosphorylation (S1P1 pERK)). Details: phosphate examples.
Sequence of hS1P1/CHO cells (P21453 whole entry): as above
Assay type: cell-based
Outline: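 CHO cells expressing human S1P1, serum-starved 2 h, exposed to compound in HBSS/20 mM HEPES for 7 min at 37° C. Lysates assayed for phospho-ERK by SureFire kit; response given as % activation relative to 10 μM S1P.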

Compound | pEC50
CN(C)C(=O)c1cccc(OC[C@@H]2CCc3cc([C@H]4CC[C@](N)(COP(=O)(O)O)C4)ccc3C2)c1 [compound 495] | > 8.00
Cc1cccc(/C=C/[C@@H]2CCc3cc([C@H]4CC[C@](N)(COP(=O)(O)O)C4)ccc3C2)c1 [compound 644] | 6.00 to 7.00
CCOc1ccc(C[C@@H]2CCc3cc([C@H]4CC[C@](N)(COP(=O)(O)O)C4)ccc3C2)cc1 [compound 549] | > 8.00
Cn1nc(OC[C@@H]2CCc3cc([C@H]4CC[C@](N)(COP(=O)(O)O)C4)ccc3C2)cc1C(F)(F)F [compound 496] | > 8.00
CC(C)=CCOC[C@@H]1CCc2cc([C@H]3CC[C@](N)(COP(=O)(O)O)C3)ccc2C1 [compound 453] | > 8.00
CCCCCCN1CCc2cc([C@@H]3CC[C@](N)(COP(=O)(O)O)C3)ccc2C1=O [compound 417] | > 8.00
Cc1ccc(OC[C@@H]2CCc3cc([C@H]4CC[C@](N)(COP(=O)(O)O)C4)ccc3C2)cc1 [compound 467] | 7.00 to 8.00
CCc1ccc(COC[C@@H]2CCc3cc([C@H]4CC[C@](N)(COP(=O)(O)O)C4)ccc3C2)s1 [compound 489] | > 8.00
CCCSCC[C@H]1CCc2cc([C@H]3CC[C@](N)(COP(=O)(O)O)C3)ccc2C1 [compound 534] | 7.00 to 8.00
CCCCCCC1Cc2ccc([C@H]3CC[C@](N)(COP(=O)(O)O)C3)cc2CO1 (stereo partly shown) [compound 421] | > 8.00

Source: patent US9522888B2, “Substituted bicyclic compounds” (BRISTOL-MYERS SQUIBB COMPANY, priority 2014, dated 2016)
